The source of these data is patent US12384798B2, “ACC inhibitor and use thereof” (NANJING RUIJIE PHARMA CO., LTD., priority 2019, dated 2025).

Data set [1] has as its target ACC1 (Homo sapiens (Human), UniProt Q13085). Nature of the data set: In vitro ACC inhibition assay (ADP-Glo), ACC1. The class given is biochemical. The protocol:
(§1) An exemplary procedure for the in vitro ACC inhibition assay, which can be used to determine the inhibitory action of the compounds of the invention toward either ACC1 or ACC2, is as follows. The ADP-Glo™ kinase assay kit from Promega was used. The ADP-Glo™ kinase assay is a luminescent ADP detection assay to measure enzymatic activity by quantifying the amount of ADP produced during an enzyme reaction. The assay was performed in two steps; first, after the enzyme reaction, an equal volume of ADP-Glo™ reagent was added to terminate the reaction and deplete the remaining ATP. Then, the kinase detection reagent was added to simultaneously convert ADP to ATP and allow the newly synthesized ATP to be measured using a luciferase/luciferin reaction. Luminescence can be correlated to ADP concentrations by using an ATP-to-ADP conversion curve. The detailed procedure was as follows. 4.5 μL of a working solution was added to a 384-well plate. The compound was diluted at 1:3 in succession in DMSO. 0.5 μL of diluted compound solution was added to a 384-well white Optiplate assay plate. The plates were incubated at room temperature for 15 minutes. 5 μL of substrate working solution was added to each well to initiate the reaction. A final ACC reaction solution consisted of: 0.5 nM ACC, 10 μM ATP, 5 μM acetyl-CoA, and 15 mM NaHCO3; and the final concentrations of the compound were measured as follows: 1 μM, 0.333 μM, 0.111 μM, 0.037 μM, 0.0123 μM, 0.00411 μM, 0.00137 μM, 0.000457 μM, 0.000152 μM, and 0.000051 μM. The plates were incubated at room temperature for 30 minutes. 10 μL of ADP-Glo™ reagent was added, and the plates were incubated at room temperature for 40 minutes. 20 μL of kinase detection reagent was added. The plates were incubated at room temperature for 40 minutes, then read on a Perkin Elmer EnVision 2104 plate reader for luminescence in relative light unit (RLU).
(§2) Data for each concentration, as well as the positive and negative controls were averaged, and the standard deviation was calculated. Percent inhibition was calculated by the formula: 100×(average negative control−compound)/(average negative control−average positive control). The IC50 for each compound was calculated by fitting the data with a non-linear regression equation: Y=Bottom+(Top−Bottom)/(1+10^((Log IC50−X)×HillSlope)), where X is the log of compound concentration and Y is the percent inhibition.

In the next data set the test system is HepG2 cells. Nature of the data set: [2-14C]-acetate incorporation assay in HepG2 cells. The format is cell-based. To be noted: for IC50: Homo sapiens, HepG2 cells, read-out: IC50 [2-14C]-acetate binding assay. The protocol:
[2-^14C]-Acetate Incorporation Assay in HepG2 Cells
DMEM (GIBCO, catalog number: 11965-092) was used as a complete culture medium for HepG2 cells (ATCC, catalog number: HB-8064). 10% fetal bovein serum (FBS, GIBCO, catalog number: 10099-141), penicillin (100 units/mL) and streptomycin (100 μg/mL) (Pen/Strep, GIBCO, catalog number: 15140-122) were added to a DMEM culture medium.
HepG2 cells were cultured in a 37° C. incubator holding 5% carbon dioxide, and passaged every 2-3 days.
The HepG2 cells were spread on a 24-well plate (Corning, catalog number: 3524) at a density of 2×10^5 cells-well, 500 μL per well, and cultured in a 37° C. incubator holding 5% carbon dioxide. On the fourth day of culture, 50 μL of a compound diluted at a gradient of 1:3 was added, with the final concentration of DMSO of 0.5% (v/v); and the cells were cultured for 1 hour in the incubator. 1 μCi [2-^14C]-sodium acetate (Perkin Elmer, catalog number: NEC085H001MC) was added to each well, and culture was conducted for another 5 hours. The culture medium in each well was transferred to a 15 mL centrifugal tube (BD, catalog number: 352096); 0.5 mL of 0.1 M NaOH was added; the cells were blown and washed repeatedly, and then transferred to new centrifugal tubes. Then, 1 mL of ethanol and 0.17 mL of 50% KOH solution were added to each centrifugal tube, which was then treated in a water bath at 90° C. for 1 hour. Next, the mixture was cooled to room temperature; 5 mL of petroleum ether was added to each centrifugal tube, which was turned upside down several times for mixing; the resulting mixture was centrifuged for 5 minutes (Eppendorf, Model: 5702, 1000 rpm); and an upper organic phase was discarded. 1 mL of concentrated hydrochloric acid was added to each centrifugal tube and centrifuged for 5 minutes, and 4 mL of petroleum ether was transferred into a glass tube (18×180 mm). The sample in the glass tube was dried at 64° C., and then dissolved and resuspended by addition of 400 μL of spotting solution (chloroform:n-hexane=1:1). 50 μL of the dissolved sample was drawn by a pipette (BIOHIT, Model: Proline Plus), and spotted onto an Isoplate-96-microwell plate (Perkin Elmer, catalog number: 6005040), and 200 μL of ULTIMA GOLD scintillation solution (Perkin Elmer, catalog number: 77-16061) was added, standing for 5 minutes. Finally, MicroBeta (PerkinElmer, Model: 2450) was used to read scintillation signals.
A 4-parameter logistic model or sigmoidal dose-response model in XLFit 5.3.1.3 (2006-2011 I D Business Solutions Limited) was used to fit IC50: fit=(A+((B−A)/(1+((C/x)^D)))); where the x-axis represented the log of compound concentration, and the y-axis represented count per minute (CPM).

For data set [2], the target named is ACC2 (Homo sapiens (Human), UniProt O00763). Nature of the data set: In vitro ACC inhibition assay (ADP-Glo), ACC2. The format is biochemical. The method, then:
as §1, §2

Data set [3] is described as follows: Pharmacokinetic evaluation of compounds in rats. The note with it: SD rats. The format is in vivo. From the text: This example was intended to investigate the pharmacokinetics of the compounds of the present invention and ND630 in SD rats under the conditions of intravenous (iv) and intragastric administration (po). Unless otherwise stated, the experimental reagents and instruments are all commercially available. ND630 was Gilead's acetyl CoA carboxylase (ACC) inhibitor, with a structural formula as follows: […]
Formulation of compound: by taking a physiological saline solution of 5% DMSO+5% Solutol HS 15+90% HP-β-CD (20% w/v) as a solvent, a compound with the final concentration of 0.4 mg/mL was formulated for intravenous administration and a compound with the final concentration of 1 mg/mL was formulated for orally intragastric administration.
Animal feeding and management: male SD rats aged 6-8 weeks and weighing between 180-250 g were selected and raised in transparent resin plastic rate cages. Before administration, the rats were fasted overnight for at least 16 hours, and the feed supply was restored 4 hours after administration.
For the intravenous injection administration group, the dose was 2 mg/kg, and 0.2 mL of blood samples was collected from the jugular vein 5 min, 15 min, 30 min, 1 h, 3 h, 5 h, and 8 h after dosage. For the orally intragastric administration group, the dose was 10 mg/kg, and 0.2 mL of blood samples was collected from the jugular vein 15 min, 30 min, 1 h, 3 h, 5 h, 8 h, 12 h, and 24 h after dosage; and liver tissues were collected 1 h, 3 hand 24 h after dosage.
After the blood were sampled, the plasma was quickly separated by centrifugation at 4000 rpm (10 minutes, 4° C.). After the liver tissues were sampled, a mixture of methanol:water (1:1, v/v) three times the volume of the liver tissues was added to prepare a homogenate. 50 μL of plasma or homogenate sample was drawn, and 200 μL of an internal standard (30 ng/mL terfenadine, and acetonitrile) was added for precipitation. Centrifuging was carried out at 4° C. and 15,400 g for 10 minutes, and a supernatant was taken for analysis.
The concentration of a target compound was detected by LC-MS/MS. According to the plasma concentration-time curve, pharmacokinetic parameters were calculated by using a non-compartmental model (NCA) of software WinNonlin 7.0. […] Table 4. Pharmacokinetic results

For data set [4], the system named is ACC2. To be noted: ACC isolated from rat, mouse, monkey and human; cited from earlier work.
In data set [5] the test system is ACC1. The note with it: ACC isolated from rat, mouse, monkey and human; cited from earlier work.

Like-named read-outs stand apart in the source and are kept apart here.

Sequence of ACC2 (Homo sapiens (Human), UniProt O00763) (O00763 whole entry, species assumed): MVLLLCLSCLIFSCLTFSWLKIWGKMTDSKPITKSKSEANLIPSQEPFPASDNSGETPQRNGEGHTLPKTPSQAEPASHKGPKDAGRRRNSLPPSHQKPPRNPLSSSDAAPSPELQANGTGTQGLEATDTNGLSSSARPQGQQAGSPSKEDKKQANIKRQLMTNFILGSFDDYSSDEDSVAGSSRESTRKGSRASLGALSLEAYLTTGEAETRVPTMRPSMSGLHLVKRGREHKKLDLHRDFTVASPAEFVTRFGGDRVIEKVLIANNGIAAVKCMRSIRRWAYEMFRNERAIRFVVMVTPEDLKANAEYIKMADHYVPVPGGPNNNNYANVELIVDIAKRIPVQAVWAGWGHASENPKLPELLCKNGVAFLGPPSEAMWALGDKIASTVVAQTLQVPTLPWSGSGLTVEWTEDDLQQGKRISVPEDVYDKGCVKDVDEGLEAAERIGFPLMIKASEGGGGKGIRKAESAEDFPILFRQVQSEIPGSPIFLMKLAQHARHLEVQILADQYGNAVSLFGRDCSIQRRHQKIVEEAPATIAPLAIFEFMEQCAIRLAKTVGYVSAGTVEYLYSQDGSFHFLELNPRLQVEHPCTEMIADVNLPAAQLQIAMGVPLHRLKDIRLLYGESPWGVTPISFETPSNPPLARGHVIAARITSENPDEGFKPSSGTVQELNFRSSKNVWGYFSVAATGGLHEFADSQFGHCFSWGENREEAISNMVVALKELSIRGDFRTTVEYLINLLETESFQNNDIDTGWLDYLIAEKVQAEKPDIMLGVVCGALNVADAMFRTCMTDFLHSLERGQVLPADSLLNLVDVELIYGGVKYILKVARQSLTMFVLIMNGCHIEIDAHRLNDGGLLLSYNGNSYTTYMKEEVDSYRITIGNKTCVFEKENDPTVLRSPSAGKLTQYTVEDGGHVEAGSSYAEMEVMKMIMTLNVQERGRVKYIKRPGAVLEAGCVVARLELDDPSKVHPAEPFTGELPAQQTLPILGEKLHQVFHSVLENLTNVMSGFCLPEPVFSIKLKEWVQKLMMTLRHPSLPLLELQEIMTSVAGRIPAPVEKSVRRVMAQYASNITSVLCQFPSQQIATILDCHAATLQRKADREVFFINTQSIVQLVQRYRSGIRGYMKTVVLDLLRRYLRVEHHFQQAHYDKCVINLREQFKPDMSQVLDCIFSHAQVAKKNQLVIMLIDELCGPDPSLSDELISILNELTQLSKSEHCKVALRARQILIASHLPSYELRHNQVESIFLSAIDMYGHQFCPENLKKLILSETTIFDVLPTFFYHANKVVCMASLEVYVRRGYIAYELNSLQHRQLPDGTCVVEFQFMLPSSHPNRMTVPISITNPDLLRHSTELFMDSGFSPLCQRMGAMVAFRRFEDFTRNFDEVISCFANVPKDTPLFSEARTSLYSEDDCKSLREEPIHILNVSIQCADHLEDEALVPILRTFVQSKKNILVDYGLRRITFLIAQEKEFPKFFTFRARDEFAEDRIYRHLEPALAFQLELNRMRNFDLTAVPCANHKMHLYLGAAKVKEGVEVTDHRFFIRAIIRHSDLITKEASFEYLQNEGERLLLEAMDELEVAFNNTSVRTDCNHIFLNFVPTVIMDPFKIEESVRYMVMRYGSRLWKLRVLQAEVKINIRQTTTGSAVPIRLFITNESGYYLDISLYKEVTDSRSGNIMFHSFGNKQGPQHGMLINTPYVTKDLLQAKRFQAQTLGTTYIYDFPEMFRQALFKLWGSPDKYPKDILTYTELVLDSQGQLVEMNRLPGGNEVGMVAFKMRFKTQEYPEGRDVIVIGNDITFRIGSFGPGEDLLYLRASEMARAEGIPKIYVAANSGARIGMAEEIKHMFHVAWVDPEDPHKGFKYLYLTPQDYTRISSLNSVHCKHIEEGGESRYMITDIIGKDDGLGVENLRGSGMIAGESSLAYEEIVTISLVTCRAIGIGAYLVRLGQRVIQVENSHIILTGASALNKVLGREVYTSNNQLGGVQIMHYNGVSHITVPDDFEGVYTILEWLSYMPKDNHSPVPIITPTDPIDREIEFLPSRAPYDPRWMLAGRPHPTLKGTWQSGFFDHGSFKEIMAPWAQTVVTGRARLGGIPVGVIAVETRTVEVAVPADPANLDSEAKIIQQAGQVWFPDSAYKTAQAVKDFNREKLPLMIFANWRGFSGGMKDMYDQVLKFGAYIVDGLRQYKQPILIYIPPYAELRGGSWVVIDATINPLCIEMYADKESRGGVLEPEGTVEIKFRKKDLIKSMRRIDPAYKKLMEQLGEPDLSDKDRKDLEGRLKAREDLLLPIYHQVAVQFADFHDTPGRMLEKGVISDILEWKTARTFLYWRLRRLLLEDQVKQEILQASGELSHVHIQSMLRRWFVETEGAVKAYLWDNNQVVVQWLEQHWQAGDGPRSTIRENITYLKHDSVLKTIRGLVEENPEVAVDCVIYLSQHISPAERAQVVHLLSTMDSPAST

For the compound `COc1ccccc1[C@H](Cn1c(=O)n(C2CC(CC(=O)O)C2)c(=O)c2c(C)c(-c3ncco3)sc21)OC1CCOCC1` (stereo partly drawn) [c-3, (R)-2-(3-(1-(2-(2-methoxyphenyl)-2-((tetrahydro-2H-pyran-4-yl)oxy)ethyl)-5-methyl-6-(oxazol-2-yl)-2,4-dioxo-1,4-dihydrothieno[2,3-d]pyrimidine-3(2H)-yl)cyclobutyl)acetic acid], the “inhibitory properties against ACC1 (in words)” value on ACC1 [1] was “good inhibitory properties”. For the same compound, the 50% inhibitory concentration (IC50) was found to be 0.000688 µM at ACC1 [1] (0.5 nM ACC, 10 μM ATP, 5 μM acetyl-CoA, read-out: Enzymatic activity IC50 ACC1); 0.0185 µM in the data set on HepG2 cells; 0.003 µM on ACC2 [2] (0.5 nM ACC, 10 μM ATP, 5 μM acetyl-CoA, read-out: Enzymatic activity IC50 ACC2). Besides, the “inhibitory properties against HepG2 cells (in words)” value with HepG2 cells was “good inhibitory properties”. Further, the “inhibitory properties against ACC2 (in words)” value at ACC2 [2] is reported as “good inhibitory properties”.
Regarding `COc1ccccc1[C@H](Cn1c(=O)n(CC2CC(C(=O)O)C2)c(=O)c2c(C)c(-c3ncco3)sc21)OC1CCOCC1` (stereo partly drawn) [c-1, (R)-3-((1-(2-(2-methoxyphenyl)-2-((tetrahydro-2H-pyran-4-yl)oxy)ethyl)-5-methyl-6-(oxazol-2-yl)-2,4-dioxa-1,4-dihydrothieno[2,3-d]pyrimidine-3(2H)-yl)methyl)cyclobutane-1-carboxylic acid], the IC50 in the data set with HepG2 cells came out at 0.232 µM.
Consider `COc1ccccc1[C@H](Cn1c(=O)n(C(C)(C)C(=O)O)c(=O)c2c(C)c(-c3ncco3)sc21)OC1CCOCC1` [ND630, reference compound], for which, in data set [3], the Cl was 12.2 mL/min/kg. Moreover, in data set [3] (male, rat, liver/plasma, po 10 mg/kg, liver collected 1 h, 3 h and 24 h after dosage, read-out: L/P liver-to-blood ratio), the Kp was 5.5 to 41.9. The Vd in data set [3] (male, rat, plasma, intravenous, 2 mg/kg, read-out: Vss) was 0.48 L/kg. Further, the AUC(0-inf) was determined as 2870 ng·h/mL in data set [3] (male, rat, plasma, iv 2 mg/kg, read-out: AUC0-∞ (iv)) and 5090 ng·h/mL in data set [3] (male, rat, plasma, po 10 mg/kg, read-out: AUC0-∞ (po)). Further, the Cmax was 5630 ng/mL in data set [3] (male, rat, plasma, iv 2 mg/kg, read-out: Cmax (iv)) and 2880 ng/mL in data set [3] (male, rat, plasma, po 10 mg/kg, read-out: Cmax (po)). Further, the time of peak concentration (Tmax) amounted to 4.98 min in data set [3] (male, rat, plasma, iv 2 mg/kg, read-out: Tmax (iv)) and 24 min in data set [3] (male, rat, plasma, po 10 mg/kg, read-out: Tmax (po)). Moreover, the half-life was 63.6 min in data set [3] (male, rat, plasma, iv 2 mg/kg, read-out: t1/2 (iv) (converted)) and 39 min in data set [3] (male, rat, plasma, po 10 mg/kg, read-out: t1/2 (po) (converted)). Besides, the bioavailability in data set [3] (male, rat, plasma, po 10 mg/kg, iv 2 mg/kg, read-out: F (%) bioavailability) is 35.8%.
For the compound `O=C(c1c2ccccc2cc2ccccc12)N1CCC(N2CCC[C@@H](C(=O)N3CCOCC3)C2)CC1` [CP-640186], the concentration for half-maximal inhibition (IC50) in the data set with ACC2 [4] and in the data set with ACC1 [5] was around 0.06 µM in each case.
